# Literature values in patent publication US20040208906A1, “Pharmaceutical composition for topical administration” (Daiichi Suntory Pharma Co., Ltd., priority 1999, published 2004).
# Columns and labels:
# [1] = test system: Gram-positive bacteria (MSSA, Streptococcus pyogenes, Streptococcus pneumoniae, PRSP, oral streptococci, enterococci); details: Gram-positive bacteria incl. MSSA
# [2] = test system: pathogens of periodontitis, including Porphyromonas gingivalis
compound,measurement,setting,value
"C[C@@H](O)[C@H]1C(=O)N2C(C(=O)[O-])=C([C@H]3CCCO3)S[C@H]12.[Na+] [Compound 1, sodium (+)-(5R,6S)-6-[(R)-1-hydroxyethyl]-7-oxo-3-[(R)-2-tetrahydrofuryl]-4-thia-1-azabicyclo[3.2.0]hept-2-ene-2-carboxylate]",antibacterial activity,[1],potent antibacterial activity
same,antibacterial activity,[2],potent antibacterial activity
